This note sets out measurements from patent US7135466B2 (Kirin Beer Kabushiki Kaisha, priority 1999, dated 2006).

As usually defined, the pIC50 is the negative decadic logarithm of the IC50, by convention in mol/L. One may read the inhibition as the change of the read-out against control, counted positive when it falls.

Structures are written as SMILES. pIC50: −log10 of the molar value.

One test deals with T1, c-kit (Homo sapiens, UniProt P10721).
T1 construct: MO7e (human megakaryocytic leukemia cell line) which had been arrested for 20 hr; endogenous in cells; host or cells: MO7e human megakaryocytic leukemia cell line
As to the kind of experiment: Inhibitory activity against c-kit autophosphorylation (MO7e cells, h-SCF). The test is classed as cell-based. Particulars: for pIC50: MO7e cells, h-SCF 50 ng/ml, read-out: c-kit IC50; for inhibition at 1 µM: Mo7e, figure in parentheses in −( ), at 1000 nM. Put shortly: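 Growth-arrested (20 hr) MO7e; cpd in DMSO, 1 hr; h-SCF 50 ng/ml, 5 min; lyse. ELISA: anti-pTyr (PY-20) capture, anti-c-kit 1° Ab, HRP anti-rabbit 2° Ab, A450.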

The target of a further test is T2, PDGF-Ra (Homo sapiens, UniProt P16234).
T2 construct: host or cells: G-292 human osteosarcoma cells
As to the kind of experiment: Inhibitory activity against PDGF-Ra phosphorylation by PDGF-AA stimulation using G292. Particulars: for pIC50: Pharmacological Test Example 1, > means inhibition at indicated concentration not more than 50%, < and << not less than 50%, read-out: PDGF (E) IC50; for inhibition at 0.1 µM: G292, figure in parentheses in >100( ), at 100 nM, read-out: PDGF (E) inhibition (%) at 100 nM. The test is classed as cell-based. In a few lines: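 Read-out: A450 from a sandwich ELISA (PY-20 capture, anti-PDGF-Ra detection, peroxidase colour) of lysates from G-292 cells given compound for 1 hr at 37 °C before a 5 min challenge with PDGF-AA at 50 ng/ml.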

T1 sequence (P10721 26-976): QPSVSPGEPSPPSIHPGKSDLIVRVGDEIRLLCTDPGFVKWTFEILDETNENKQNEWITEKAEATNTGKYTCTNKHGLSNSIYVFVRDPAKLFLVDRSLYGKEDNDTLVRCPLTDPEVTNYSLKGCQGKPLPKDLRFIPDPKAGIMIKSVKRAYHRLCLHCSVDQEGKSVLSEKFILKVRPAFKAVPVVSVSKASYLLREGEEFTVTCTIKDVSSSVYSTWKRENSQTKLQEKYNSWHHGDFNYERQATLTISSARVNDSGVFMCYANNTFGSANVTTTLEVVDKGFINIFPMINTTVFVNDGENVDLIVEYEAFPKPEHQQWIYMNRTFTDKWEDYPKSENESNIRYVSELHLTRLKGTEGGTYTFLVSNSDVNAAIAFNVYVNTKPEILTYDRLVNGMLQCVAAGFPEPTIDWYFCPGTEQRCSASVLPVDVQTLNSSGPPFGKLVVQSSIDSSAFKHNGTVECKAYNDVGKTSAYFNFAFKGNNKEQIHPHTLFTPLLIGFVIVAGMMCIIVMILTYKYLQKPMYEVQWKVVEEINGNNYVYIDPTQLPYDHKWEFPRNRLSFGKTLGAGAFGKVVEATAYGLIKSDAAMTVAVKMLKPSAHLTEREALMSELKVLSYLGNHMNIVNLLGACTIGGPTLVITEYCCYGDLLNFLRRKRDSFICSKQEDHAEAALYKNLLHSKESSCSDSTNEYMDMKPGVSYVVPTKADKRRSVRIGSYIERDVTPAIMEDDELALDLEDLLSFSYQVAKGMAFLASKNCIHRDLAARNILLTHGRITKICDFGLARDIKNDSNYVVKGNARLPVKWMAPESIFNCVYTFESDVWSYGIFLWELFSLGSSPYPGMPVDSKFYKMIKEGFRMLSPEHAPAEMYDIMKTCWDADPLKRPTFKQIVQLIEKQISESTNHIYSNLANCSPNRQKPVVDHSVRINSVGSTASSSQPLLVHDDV
T2 sequence (P16234 24-1089): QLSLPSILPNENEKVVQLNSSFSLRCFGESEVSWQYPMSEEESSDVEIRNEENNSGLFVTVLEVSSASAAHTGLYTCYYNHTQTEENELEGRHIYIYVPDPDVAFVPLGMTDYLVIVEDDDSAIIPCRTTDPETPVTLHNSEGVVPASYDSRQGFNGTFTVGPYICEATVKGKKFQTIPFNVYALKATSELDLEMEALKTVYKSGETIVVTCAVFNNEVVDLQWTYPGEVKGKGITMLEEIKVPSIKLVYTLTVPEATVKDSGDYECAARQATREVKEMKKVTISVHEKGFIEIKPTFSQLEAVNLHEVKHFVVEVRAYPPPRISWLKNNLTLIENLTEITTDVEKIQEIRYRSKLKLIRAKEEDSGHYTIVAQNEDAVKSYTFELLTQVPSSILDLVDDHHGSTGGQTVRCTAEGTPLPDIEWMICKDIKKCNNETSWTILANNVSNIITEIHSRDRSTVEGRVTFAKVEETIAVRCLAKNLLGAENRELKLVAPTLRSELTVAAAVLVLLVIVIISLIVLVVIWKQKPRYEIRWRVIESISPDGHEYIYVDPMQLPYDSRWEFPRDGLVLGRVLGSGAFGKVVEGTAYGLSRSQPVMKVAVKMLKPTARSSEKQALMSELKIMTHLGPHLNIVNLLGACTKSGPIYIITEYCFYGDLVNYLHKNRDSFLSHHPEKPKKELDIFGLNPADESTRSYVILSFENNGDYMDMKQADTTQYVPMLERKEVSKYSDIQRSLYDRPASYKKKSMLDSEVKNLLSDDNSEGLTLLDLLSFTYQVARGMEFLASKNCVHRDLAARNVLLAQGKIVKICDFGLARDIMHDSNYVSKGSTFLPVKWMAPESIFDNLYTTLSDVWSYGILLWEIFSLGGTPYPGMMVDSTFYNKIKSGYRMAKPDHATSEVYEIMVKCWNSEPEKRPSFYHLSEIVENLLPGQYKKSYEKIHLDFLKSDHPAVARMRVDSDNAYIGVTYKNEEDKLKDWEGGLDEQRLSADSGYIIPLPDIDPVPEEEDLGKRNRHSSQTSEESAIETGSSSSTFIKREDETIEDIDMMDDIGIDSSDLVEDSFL

On to `CCOc1ccccc1C(C)OC(=O)Nc1ccc(Oc2ncnc3cc(OC)c(OC)cc23)cc1` (centres unmarked) [Example 130, 1-(2-Ethoxyphenyl)ethyl N-{4-[(6,7-dimethoxy-4-quinazolinyl)oxy]phenyl}carbamate], for which the figures for the pIC50 at c-kit and at PDGF-Ra were 6.15 and more than 8.00, respectively.
Consider `CCOc1ccccc1C(C)OC(=O)Nc1ccc(Oc2ncnc3cc(OC)c(OC)cc23)cc1Cl` (centres unmarked) [Example 131, 1-(2-Ethoxyphenyl)ethyl N-{-chloro-4-[(6,7-dimethoxy-4-quinazolinyl)oxy]phenyl}carbamate], for which the inhibition at 1 µM on c-kit amounted to 40%. Further, the pIC50 on PDGF-Ra was 7.42.
As to `COc1cc2nccc(Oc3ccc(NC(=O)OC(C)c4ccc(C)cc4)cc3)c2cc1OC` (centres unmarked) [Example 132, 1-(4-Methylphenyl)ethyl N-{4-[(6,7-dimethoxy-4-quinolyl)oxy]phenyl}carbamate], the pIC50 was 6.52 on c-kit and 7.59 on PDGF-Ra.
As to `COc1cc2nccc(Oc3ccc(NC(=O)OC(C)c4ccc(C)cc4)c(C)c3C)c2cc1OC` (centres unmarked) [Example 133, 1-(4-Methylphenyl)ethyl N-{4-[(6,7-dimethoxy-4-quinolyl)oxy]-2,3-dimethylphenyl}carbamate], the results for the pIC50 at c-kit and at PDGF-Ra were 6.69 and 7.59, respectively.
As to `COc1cc2nccc(Oc3cc(C)c(NC(=O)OC(C)c4ccc(C)cc4)cc3C)c2cc1OC` (centres unmarked) [Example 134, 1-(4-Methylphenyl)ethyl N-{4-[(6,7-dimethoxy-4-quinolyl)oxy]-2,5-dimethylphenyl}carbamate], the pIC50 at c-kit was 6.03. In addition, on PDGF-Ra, the inhibition at 0.1 µM came to 49% and the pIC50 is less than 7.00.
For `COc1cc2ncnc(Oc3ccc(NC(=O)OC(C)c4ccc(C)cc4)cc3)c2cc1OC` (centres unmarked) [Example 135, 1-(4-Methylphenyl)ethyl N{4-[(6,7-dimethoxy-4-quinazolinyl)oxy]phenyl}carbamate], the figures for the pIC50 at c-kit and on PDGF-Ra were 6.32 and 7.74, respectively.
Take `COc1cc2ncnc(Oc3ccc(NC(=O)OC(C)c4ccc(C)cc4)c(Cl)c3)c2cc1OC` (centres unmarked) [Example 136, 1-(4-Methylphenyl)ethyl N-{2-chloro-4-[(6,7-dimethoxy-4-quinazolinyl)oxy]phenyl}carbamate]: the inhibition at 1 µM at c-kit was 7%. Moreover, on PDGF-Ra, the pIC50 was 7.37.
Consider `COc1cc2nccc(Oc3ccc(NC(=O)OCCSc4ccc(C)cc4)cc3)c2cc1OC` [Example 137, 3-[(4-Methylphenyl)sulfanyl]ethyl N-{4-[(dimethoxy-4-quinolyl)oxy]-phenyl}carbamate], for which the values for the pIC50 on c-kit and on PDGF-Ra were 6.63 and more than 8.00, respectively.
On the same counts, the results for `COc1cc2nccc(Oc3ccc(NC(=O)OCCSc4ccc(C)cc4)c(C)c3C)c2cc1OC` [Example 138, 3-[(4-Methylphenyl)sulfanyl]ethyl N-{4-[(6,7-dimethoxy-4-quinolyl)oxy]-2,3-dimethylphenyl}carbamate] are 7.13 and 7.77.
`COc1cc2ncnc(Oc3ccc(NC(=O)OCCSc4ccc(C)cc4)cc3)c2cc1OC` [Example 140]: the results for the pIC50 on c-kit and on PDGF-Ra were 6.63 and more than 8.00, respectively.
In the case of `COc1cc2ncnc(Oc3ccc(NC(=O)OCCSc4ccc(C)cc4)c(Cl)c3)c2cc1OC` [Example 141, 3-[(4-Methylphenyl)sulfanyl]ethyl N-{2-chloro-4-[(6,7-dimethoxy-4-quinazolinyl)oxy]phenyl}carbamate], the inhibition at 1 µM at c-kit came out at 26%. In addition, the pIC50 on PDGF-Ra was 7.44.
Consider `COc1cc2nccc(Oc3ccc(NC(=O)OCCCOc4ccccc4F)cc3)c2cc1OC` [Example 142, 3-(2-Fluorophenoxy)propyl N-{4-[(6,7-dimethoxy-4-quinolyl)oxy]phenyl}carbamate], for which the pIC50 is more than 7.52 on c-kit and more than 8.00 at PDGF-Ra.
The corresponding values for `COc1cc2nccc(Oc3ccc(NC(=O)OCCCOc4ccccc4F)c(C)c3C)c2cc1OC` [Example 143, 3-(2-Fluorophenoxy)propyl N-{4-[(6,7-dimethoxy-4-quinolyl)oxy]-2,3-dimethylphenyl}carbamate] are more than 7.52 and more than 8.00.
On the same counts, the results for `COc1cc2nccc(Oc3cc(C)c(NC(=O)OCCCOc4ccccc4F)cc3C)c2cc1OC` [Example 144, 3-(2-Fluorophenoxy)propyl N-{4-[(6,7-dimethoxy-4-quinolyl)oxy]-2,5-dimethylphenyl}carbamate] are 7.31 and 7.74.
The corresponding values for `COc1cc2ncnc(Oc3ccc(NC(=O)OCCCOc4ccccc4F)cc3)c2cc1OC` [Example 145, 3-(2-Fluorophenoxy) propyl N-{4-[(6,7-dimethoxy-4-quinazolinyl)oxy]phenyl}carbamate] are more than 7.52 and more than 8.00.
With `COc1cc2ncnc(Oc3ccc(NC(=O)OCCCOc4ccccc4F)c(C)c3C)c2cc1OC` [Example 146, 3-(2-Fluorophenoxy)propyl N-{4-[(6,7-dimethoxy-4-quinazolinyl)oxy]-2,3-dimethylphenyl}carbamate], the values for the pIC50 on c-kit and on PDGF-Ra were 7.49 and 7.96, respectively.
On the same counts, the results for `COc1cc2nccc(Oc3ccc(NC(=O)OCCCOc4cccc(F)c4)cc3)c2cc1OC` [Example 147, 3-(3-Fluorophenoxy)propyl N-{4-[(6,7-dimethoxy-4-quinolyl)oxy]phenyl}carbamate] are more than 7.52 and 7.96.
In the case of `COc1cc2nccc(Oc3ccc(NC(=O)OCCCOc4cccc(F)c4)c(C)c3C)c2cc1OC` [Example 148, 3-(3-Fluorophenoxy)propyl N-{4-[(6,7-dimethoxy-4-quinolyl)oxy]-2,3-dimethylphenyl}carbamate], the results for the pIC50 on c-kit and at PDGF-Ra were more than 7.52 and more than 8.00, respectively.
On the same counts, the results for `COc1cc2nccc(Oc3cc(C)c(NC(=O)OCCCOc4cccc(F)c4)cc3C)c2cc1OC` [Example 149, 3-(3-Fluorophenoxy)propyl N-{4-[(6,7-dimethoxy-4-quinolyl)oxy]-2,5-dimethylphenyl}carbamate] are 7.31 and 7.72.
The corresponding values for `COc1cc2ncnc(Oc3ccc(NC(=O)OCCCOc4cccc(F)c4)cc3)c2cc1OC` [Example 150, 3-(3-Fluorophenoxy)propyl N-{4-[(6,7-dimethoxy-4-quinazolinyl)oxy]phenyl}carbamate] are 7.42 and more than 8.00.
On the same counts, the results for `COc1cc2ncnc(Oc3ccc(NC(=O)OCCCOc4cccc(F)c4)c(C)c3C)c2cc1OC` [Example 151, 3-(3-Fluorophenoxy)propyl N-{4-[(6,7-dimethoxy-4-quinazolinyl)oxy]-2,3-dimethylphenyl}carbamate] are 7.49 and 7.92.
For `COc1cc2nccc(Oc3ccc(NC(=O)OCCCOc4ccc(F)cc4)cc3)c2cc1OC` [Example 152, 3-(4-Fluorophenoxy)propyl N-{4-[(6,7-dimethoxy-4-quinolyl)oxy]phenyl}carbamate], the pIC50 was more than 7.52 on c-kit and more than 8.00 on PDGF-Ra.
Regarding `COc1cc2nccc(Oc3ccc(NC(=O)OCCCOc4ccc(F)cc4)c(C)c3C)c2cc1OC` [Example 153, 3-(4-Fluorophenoxy)propyl N-{4-[(6,7-dimethoxy-4-quinolyl)oxy]-2,3-dimethylphenyl}carbamate], the figures for the pIC50 on c-kit and on PDGF-Ra were more than 7.52 and more than 8.00, respectively.
For the compound `COc1cc2nccc(Oc3cc(C)c(NC(=O)OCCCOc4ccc(F)cc4)cc3C)c2cc1OC` [Example 154, 3-(4-Fluorophenoxy)propyl N-{4-[(6,7-dimethoxy-4-quinolyl)oxy]-2,5-dimethylphenyl}carbamate], the values for the pIC50 on c-kit and on PDGF-Ra were 7.21 and 7.40, respectively.
On the same counts, the results for `COc1cc2ncnc(Oc3ccc(NC(=O)OCCCOc4ccc(F)cc4)cc3)c2cc1OC` [Example 155, 3-(4-Fluorophenoxy)propyl N-{4-[(6,7-dimethoxy-4-quinazolinyl)oxy]phenyl}carbamate] are 7.39 and 7.85.
For the compound `COc1cc2ncnc(Oc3ccc(NC(=O)OCCCOc4ccc(F)cc4)c(C)c3C)c2cc1OC` [Example 156, 3-(4-Fluorophenoxy)propyl N-{4-[(6,7-dimethoxy-4-quinazolinyl)oxy]-2,3-dimethylphenyl}-carbamate], the pIC50 at c-kit was 7.48; at PDGF-Ra it was less than 7.00. Moreover, the inhibition at 0.1 µM on PDGF-Ra is 48%.
`COc1cc2nccc(Oc3ccc(NC(=O)OCCCOc4ccccc4OC)cc3)c2cc1OC` [Example 157, 3-(2-Methoxyphenoxy)propyl N-{4-[(6,7-dimethoxy-4-quinolyl)oxy]phenyl}carbamate]: the pIC50 on c-kit was 7.46; at PDGF-Ra, more than 8.00.
The corresponding values for `COc1cc2nccc(Oc3ccc(NC(=O)OCCCOc4ccccc4OC)c(C)c3C)c2cc1OC` [Example 158, 3-(2-Methoxyphenoxy)propyl N-{4-[(6,7-dimethoxy-4-quinolyl)oxy]-2,3-dimethylphenyl}carbamate] are 6.97 and 7.92.
On the same counts, the results for `COc1cc2nccc(Oc3cc(C)c(NC(=O)OCCCOc4ccccc4OC)cc3C)c2cc1OC` [Example 159, 3-(2-Methoxyphenoxy)propyl N-{4-[(6,7-dimethoxy-4-quinolyl)oxy]-2,5-dimethylphenyl}carbamate] are 6.83 and 7.28.
With `COc1cc2ncnc(Oc3ccc(NC(=O)OCCCOc4ccccc4OC)cc3)c2cc1OC` [Example 160, 3-(2-Methoxyphenoxy)propyl N-{4-[(6,7-dimethoxy-4-quinazolinyl)oxy]phenyl}carbamate], the pIC50 on c-kit was 7.28; on PDGF-Ra, 7.80.
